{"source": "patent US10294202B2", "about": "“Pyrrolidinones as herbicides” (FMC Corporation, priority 2013, dated 2019)", "key": {"corn": {"system": "corn", "test": "Test A pre-/postemergence herbicide test", "format": "in vivo, Zea mays", "settings": "Postemergence", "summary_of_the_method": "(§1)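 Visual 0–100 ratings (100 = complete control) made about 10 days after treatment, greenhouse-held plants compared with untreated controls. Treatments: postemergence sprays on one- to two-leaf plants (2–10 cm tall) and preemergence directed soil sprays after planting in loam–sand, chemicals formulated in non-phytotoxic solvent containing surfactant.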"}, "barnyardgrass [1]": {"system": "barnyardgrass", "test": "Test B flooded paddy test", "format": "in vivo, Echinochloa crus-galli", "settings": "500 g ai/ha, Flood; scale of 0 to 100 where 0 is no effect and 100 is complete control", "summary_of_the_method": "(§2)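 First, plants reach the 2-leaf stage; next, pots are flooded to 3 cm and compound is delivered into the water; finally, after 13 to 15 greenhouse days at constant depth, injury is graded visually from 0 to 100 against controls.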"}, "ragweed": {"system": "ragweed", "test": "Test A pre-/postemergence herbicide test", "format": "in vivo, Ambrosia elatior", "summary_of_the_method": "as §1"}, "sedge, umbrella": {"system": "sedge, umbrella", "test": "Test B flooded paddy test", "format": "in vivo, Cyperus difformis", "settings": "500 g ai/ha, Flood; scale of 0 to 100 where 0 is no effect and 100 is complete control", "summary_of_the_method": "as §2"}, "ducksalad": {"system": "ducksalad", "test": "Test B flooded paddy test", "format": "in vivo, Heteranthera limosa", "settings": "500 g ai/ha, Flood; scale of 0 to 100 where 0 is no effect and 100 is complete control", "summary_of_the_method": "as §2"}, "ryegrass, Italian": {"system": "ryegrass, Italian", "test": "Test A pre-/postemergence herbicide test", "format": "in vivo, Lolium multiflorum", "summary_of_the_method": "as §1"}, "barnyardgrass [2]": {"system": "barnyardgrass", "test": "Test A pre-/postemergence herbicide test", "format": "in vivo, Echinochloa crus-galli", "summary_of_the_method": "as §1"}, "wheat": {"system": "wheat", "test": "Test A pre-/postemergence herbicide test", "format": "in vivo, Triticum aestivum", "settings": "Postemergence", "summary_of_the_method": "as §1"}, "galium": {"system": "galium", "test": "Test A postemergence herbicide test", "format": "in vivo, Galium aparine", "summary_of_the_method": "(§3)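 Blackgrass and galium grown in pots of loam soil–sand blend, treated postemergence at 2–10 cm height, one- to two-leaf stage. Plants kept in greenhouse ~10 days, then visually rated for injury against untreated controls on a 0–100 scale (0 no effect, 100 complete control).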"}, "blackgrass": {"system": "blackgrass", "test": "Test A postemergence herbicide test", "format": "in vivo, Alopecurus myosuroides", "summary_of_the_method": "as §3"}, "rice": {"system": "rice", "test": "Test B flooded paddy test", "format": "in vivo, Oryza sativa", "settings": "500 g ai/ha, Flood; scale of 0 to 100 where 0 is no effect and 100 is complete control", "summary_of_the_method": "as §2"}, "pigweed": {"system": "pigweed", "test": "Test A pre-/postemergence herbicide test", "format": "in vivo, Amaranthus retroflexus", "summary_of_the_method": "as §1"}, "kochia": {"system": "kochia", "test": "Test A pre-/postemergence herbicide test", "format": "in vivo, Kochia scoparia", "summary_of_the_method": "as §1"}, "giant foxtail": {"system": "giant foxtail", "test": "Test A pre-/postemergence herbicide test", "format": "in vivo, Setaria faberii", "summary_of_the_method": "as §1"}, "[3]": {"settings": "125 g ai/ha, 0 to 100 scale, 0 no effect, 100 complete control"}, "[4]": {"settings": "125 g ai/ha, visual rating, 0 to 100 scale, 0 no effect, 100 complete control, approximately 10 days, preemergence"}, "[5]": {"settings": "Postemergence, 125 g ai/ha, 0 to 100 scale, 0 no effect, 100 complete control"}, "[6]": {"settings": "preemergence, 500 g ai/ha, 0 to 100 scale"}, "[7]": {"settings": "125 g ai/ha, 0 to 100 scale, 0 is no effect, 100 is complete control"}, "[8]": {"settings": "500 g ai/ha, 0 to 100 scale (0 no effect, 100 complete control)"}, "[9]": {"settings": "Postemergence, 125 g ai/ha, visual rating on 0 to 100 scale (0 no effect, 100 complete control), approx. 10 days"}, "[10]": {"settings": "Postemergence, 500 g ai/ha, 0 to 100 scale (0 no effect, 100 complete control)"}, "[11]": {"settings": "Preemergence, 125 g ai/ha, 0 to 100 scale where 0 is no effect and 100 is complete control"}, "[12]": {"settings": "preemergence, 500 g ai/ha, 0 to 100 scale, 0 is no effect and 100 is complete control"}, "[13]": {"settings": "Postemergence, 125 g ai/ha, 0 to 100 scale, 0 is no effect, 100 is complete control"}}}
{"smiles": "COc1cc(C2CNC(=O)C2C(=O)Nc2ccc(F)c(F)c2F)ccc1F", "note": "(racemic) [Compound 132]", "values": [{"measurement": "Plant response rating, Corn", "setting": "corn; [3]", "result": 0}, {"measurement": "Corn plant response rating (0 to 100 scale, 0 is no effect, 100 is complete control)", "setting": "corn; 500 g ai/ha", "result": 0}, {"measurement": "Plant response rating, Barnyardgrass", "setting": "barnyardgrass [1]", "result": 40}, {"measurement": "Plant response rating, Ragweed", "setting": "ragweed; [4]", "result": 0}, {"measurement": "Plant response rating, Ragweed", "setting": "ragweed; [5]", "result": 0}, {"measurement": "Ragweed plant response rating (0 to 100 scale, 0 is no effect, 100 is complete control)", "setting": "ragweed; Postemergence, 500 g ai/ha", "result": 0}, {"measurement": "Plant response rating, Ragweed", "setting": "ragweed; [6]", "result": 0}, {"measurement": "Plant response rating, Sedge, Umbrella", "setting": "sedge, umbrella", "result": 0}, {"measurement": "Plant response rating, Ducksalad", "setting": "ducksalad", "result": 85}, {"measurement": "Plant response rating, Ryegrass, Italian", "setting": "ryegrass, Italian; [4]", "result": 0}, {"measurement": "Plant response rating, Ryegrass, Italian", "setting": "ryegrass, Italian; [5]", "result": 0}, {"measurement": "Ryegrass, Italian plant response rating (0 to 100 scale, 0 is no effect, 100 is complete control)", "setting": "ryegrass, Italian; Postemergence, 500 g ai/ha", "result": 0}, {"measurement": "Plant response rating, Ryegrass, Italian", "setting": "ryegrass, Italian; [6]", "result": 0}, {"measurement": "Plant response rating, Barnyardgrass", "setting": "barnyardgrass [2]; [4]", "result": 70}, {"measurement": "Plant response rating, Barnyardgrass", "setting": "barnyardgrass [2]; [5]", "result": 60}, {"measurement": "Barnyardgrass plant response rating (0 to 100 scale, 0 is no effect, 100 is complete control)", "setting": "barnyardgrass [2]; Postemergence, 500 g ai/ha", "result": 80}, {"measurement": "Plant response rating, Barnyardgrass", "setting": "barnyardgrass [2]; preemergence, 500 g ai/ha, 0 to 100 scale (0 no effect, 100 complete control)", "result": 90}, {"measurement": "Plant response rating, Wheat", "setting": "wheat; [3]", "result": 0}, {"measurement": "Wheat plant response rating (0 to 100 scale, 0 is no effect, 100 is complete control)", "setting": "wheat; 500 g ai/ha", "result": 0}, {"measurement": "Plant response rating, Galium", "setting": "galium; [3]", "result": 0}, {"measurement": "Galium plant response rating (0 to 100 scale, 0 is no effect, 100 is complete control)", "setting": "galium; 500 g ai/ha", "result": 0}, {"measurement": "Plant response rating, Blackgrass", "setting": "blackgrass; [3]", "result": 0}, {"measurement": "Blackgrass plant response rating (0 to 100 scale, 0 is no effect, 100 is complete control)", "setting": "blackgrass; 500 g ai/ha", "result": 0}, {"measurement": "Plant response rating, Rice", "setting": "rice", "result": 0}, {"measurement": "Plant response rating, Pigweed", "setting": "pigweed; [4]", "result": 0}, {"measurement": "Plant response rating, Pigweed", "setting": "pigweed; [5]", "result": 0}, {"measurement": "Pigweed plant response rating (0 to 100 scale, 0 is no effect, 100 is complete control)", "setting": "pigweed; Postemergence, 500 g ai/ha", "result": 0}, {"measurement": "Plant response rating, Pigweed", "setting": "pigweed; [6]", "result": 0}, {"measurement": "Plant response rating, Kochia", "setting": "kochia; [4]", "result": 0}, {"measurement": "Plant response rating, Kochia", "setting": "kochia; [5]", "result": 0}, {"measurement": "Kochia plant response rating (0 to 100 scale, 0 is no effect, 100 is complete control)", "setting": "kochia; Postemergence, 500 g ai/ha", "result": 10}, {"measurement": "Plant response rating, Kochia", "setting": "kochia; [6]", "result": 0}, {"measurement": "Plant response rating, Foxtail, Giant", "setting": "giant foxtail; [4]", "result": 70}, {"measurement": "Plant response rating, Foxtail, Giant", "setting": "giant foxtail; [5]", "result": 50}, {"measurement": "Foxtail, Giant plant response rating (0 to 100 scale, 0 is no effect, 100 is complete control)", "setting": "giant foxtail; Postemergence, 500 g ai/ha", "result": 70}, {"measurement": "Plant response rating, Foxtail, Giant", "setting": "giant foxtail; [6]", "result": 80}]}
{"smiles": "CC(C)N1CC(c2ccc(F)cc2)C(C(=O)Nc2cccc(F)c2F)C1=O", "note": "(stereo not drawn) [Compound 276]", "values": [{"measurement": "Plant response rating, Corn", "setting": "corn; [7]", "result": 0}, {"measurement": "Plant response rating, Corn", "setting": "corn; [8]", "result": 0}, {"measurement": "Plant response rating, Barnyardgrass", "setting": "barnyardgrass [1]", "result": 0}, {"measurement": "Plant response rating, Ragweed", "setting": "ragweed; [9]", "result": 0}, {"measurement": "Plant response rating, Ragweed", "setting": "ragweed; [10]", "result": 0}, {"measurement": "Plant response rating, Ragweed", "setting": "ragweed; [11]", "result": 0}, {"measurement": "Plant response rating, Ragweed", "setting": "ragweed; [12]", "result": 0}, {"measurement": "Plant response rating, Sedge, Umbrella", "setting": "sedge, umbrella", "result": 0}, {"measurement": "Plant response rating, Ducksalad", "setting": "ducksalad", "result": 30}, {"measurement": "Plant response rating, Ryegrass, Italian", "setting": "ryegrass, Italian; [9]", "result": 0}, {"measurement": "Plant response rating, Ryegrass, Italian", "setting": "ryegrass, Italian; [10]", "result": 0}, {"measurement": "Plant response rating, Ryegrass, Italian", "setting": "ryegrass, Italian; [11]", "result": 0}, {"measurement": "Plant response rating, Ryegrass, Italian", "setting": "ryegrass, Italian; [12]", "result": 0}, {"measurement": "Plant response rating, Barnyardgrass", "setting": "barnyardgrass [2]; [13]", "result": 0}, {"measurement": "Plant response rating, Barnyardgrass", "setting": "barnyardgrass [2]; [10]", "result": 0}, {"measurement": "Plant response rating, Barnyardgrass", "setting": "barnyardgrass [2]; [11]", "result": 0}, {"measurement": "Plant response rating, Barnyardgrass", "setting": "barnyardgrass [2]; [12]", "result": 0}, {"measurement": "Plant response rating, Wheat", "setting": "wheat; 125 g ai/ha, visual rating on 0 to 100 scale (0 no effect, 100 complete control), approx. 10 days", "result": 0}, {"measurement": "Plant response rating, Wheat", "setting": "wheat; [8]", "result": 0}, {"measurement": "Plant response rating, Galium", "setting": "galium; [7]", "result": 0}, {"measurement": "Plant response rating, Galium", "setting": "galium; [8]", "result": 0}, {"measurement": "Plant response rating, Blackgrass", "setting": "blackgrass; [7]", "result": 0}, {"measurement": "Plant response rating, Blackgrass", "setting": "blackgrass; [8]", "result": 0}, {"measurement": "Plant response rating, Rice", "setting": "rice", "result": 0}, {"measurement": "Plant response rating, Pigweed", "setting": "pigweed; [9]", "result": 0}, {"measurement": "Plant response rating, Pigweed", "setting": "pigweed; [10]", "result": 0}, {"measurement": "Plant response rating, Pigweed", "setting": "pigweed; [11]", "result": 0}, {"measurement": "Plant response rating, Pigweed", "setting": "pigweed; [12]", "result": 0}, {"measurement": "Plant response rating, Kochia", "setting": "kochia; [13]", "result": 0}, {"measurement": "Plant response rating, Kochia", "setting": "kochia; [10]", "result": 0}, {"measurement": "Plant response rating, Kochia", "setting": "kochia; [11]", "result": 0}, {"measurement": "Plant response rating, Kochia", "setting": "kochia; [12]", "result": 0}, {"measurement": "Plant response rating, Foxtail, Giant", "setting": "giant foxtail; [13]", "result": 0}, {"measurement": "Plant response rating, Foxtail, Giant", "setting": "giant foxtail; [10]", "result": 0}, {"measurement": "Plant response rating, Foxtail, Giant", "setting": "giant foxtail; [11]", "result": 0}, {"measurement": "Plant response rating, Foxtail, Giant", "setting": "giant foxtail; [12]", "result": 0}]}
